{"source": "patent US12655142B2", "about": "(Merck Patent GmbH, priority 2019, dated 2026)", "key": {"[1]": {"target": "T1, GIST430/654 cell line expressing mutated constitutively active cKIT receptor tyrosine kinase (Δ560-576 deletion and V654A point mutation) (Homo sapiens, UniProt P10721, DEL560-576/V654A)", "T1 construct": "endogenous in cells; host or cells: GIST430/654 cells", "T1 sequence (P10721 with tags, fused parts or gaps DEL560-576/V654A)": "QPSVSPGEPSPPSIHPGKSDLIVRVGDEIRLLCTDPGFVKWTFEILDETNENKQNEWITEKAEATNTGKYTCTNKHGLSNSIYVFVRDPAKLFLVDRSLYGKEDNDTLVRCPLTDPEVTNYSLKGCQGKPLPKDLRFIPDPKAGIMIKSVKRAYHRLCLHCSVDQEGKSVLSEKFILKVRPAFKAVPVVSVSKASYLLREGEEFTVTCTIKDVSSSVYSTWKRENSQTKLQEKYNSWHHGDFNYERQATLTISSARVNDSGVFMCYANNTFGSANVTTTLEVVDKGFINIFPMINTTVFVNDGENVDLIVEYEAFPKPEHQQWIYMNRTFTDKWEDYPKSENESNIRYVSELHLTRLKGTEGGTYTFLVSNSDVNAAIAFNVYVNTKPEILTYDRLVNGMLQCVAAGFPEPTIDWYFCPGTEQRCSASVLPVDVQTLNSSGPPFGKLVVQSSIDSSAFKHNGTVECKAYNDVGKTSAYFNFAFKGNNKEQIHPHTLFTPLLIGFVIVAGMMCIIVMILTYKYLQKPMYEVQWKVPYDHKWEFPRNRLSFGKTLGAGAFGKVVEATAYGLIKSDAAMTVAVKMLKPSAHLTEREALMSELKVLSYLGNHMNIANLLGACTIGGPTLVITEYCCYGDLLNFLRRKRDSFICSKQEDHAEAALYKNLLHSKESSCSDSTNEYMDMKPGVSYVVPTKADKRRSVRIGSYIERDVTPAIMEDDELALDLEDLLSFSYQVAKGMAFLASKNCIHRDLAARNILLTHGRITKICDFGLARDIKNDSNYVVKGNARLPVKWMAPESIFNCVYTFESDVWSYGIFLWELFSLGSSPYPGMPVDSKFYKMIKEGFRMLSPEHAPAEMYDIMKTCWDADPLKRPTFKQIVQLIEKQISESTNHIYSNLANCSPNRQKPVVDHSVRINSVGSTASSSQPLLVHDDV", "test": "Cellular cKIT autophosphorylation (phospho-Y307-cKIT, Luminex bead assay) in GIST430/654 cells", "assay_type": "cell-based", "settings": "compounds 45 min, read-out: GIST 430/654 IC50", "procedure": "Assay Principle for Cellular Testing of cKIT Mutant Inhibitors\nThe GIST430 cell line expressing constitutive active cKIT receptor tyrosine kinase (Δ560-576 deletion) and the Imatinib resistant GIST430/654 cell line expressing mutated constitutively active cKIT receptor tyrosine kinase (Δ560-576 deletion and V654A point mutation) were employed for assessing cellular potency of compounds. Cellular activity of mutant cKIT was determined by the degree of cKIT autophosphorylation at tyrosine 307 using a Luminex-based bead assay. GIST430 cells were plated with 22,000 cells per well of a 96-well plate in 100 μl medium (85% IMDM/15% FCS) and GIST430/654 cells were plated with 25,000 cells per well of a 96-well plate in 100 μl medium (85% IMDM/15% FCS supplemented with 100 nM Imatinib). At the following day compounds were added in a serial dilution for 45 min. Then, cells were lysed with 90 μl lysis buffer (20 mM Hepes pH 7.5, 200 mM NaCl, 1.5 mM MgCl2×6H2O, 0.4 mM EDTA, 1% Triton-X-100, 1% Phosphatase-Inhibitor II, 20 mM β-Glycerolphosphat, 0.1% Protease-Inhibitor Cocktail III, 0.01% Benzonase) and lysates were cleared by centrifugation through a 96-well filter plate (0.65 μm). Samples were incubated with Luminex-beads which were coupled with an anti-total cKIT antibody overnight at 4° C. under gentle agitation. For detection of phospho-Y307-cKIT a phosphospecific antibody and a species-specific PE-labeled secondary antibody were added. The amount of phospho-Y307-cKIT was determined in a Luminex 200 instrument measuring 100 events per well within 60 seconds.\nCounts from samples treated with compounds were calculated as percent of control from solvent treated (0.3% DMSO) samples. Dose-response curves were fitted and IC50 values were determined using Genedata Screener software."}, "[2]": {"target": "T2, c-Kit(V654A) (Homo sapiens, UniProt P10721, V654A)", "T2 construct": "recombinant human c-Kit, amino acids 544-end containing the V654A mutation; GST (N)", "T2 sequence (P10721 544-976 V654A)": "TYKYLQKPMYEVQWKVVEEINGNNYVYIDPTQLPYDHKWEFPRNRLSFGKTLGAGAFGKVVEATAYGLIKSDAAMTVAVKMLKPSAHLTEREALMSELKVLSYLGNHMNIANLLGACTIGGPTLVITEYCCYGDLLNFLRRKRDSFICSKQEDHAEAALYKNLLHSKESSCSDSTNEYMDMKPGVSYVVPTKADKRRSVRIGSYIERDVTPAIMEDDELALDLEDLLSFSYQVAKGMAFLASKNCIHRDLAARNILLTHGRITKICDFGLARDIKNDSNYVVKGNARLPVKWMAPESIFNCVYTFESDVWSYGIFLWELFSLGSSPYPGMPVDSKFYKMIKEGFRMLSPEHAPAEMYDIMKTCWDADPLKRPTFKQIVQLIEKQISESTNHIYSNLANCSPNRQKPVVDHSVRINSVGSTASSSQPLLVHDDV", "test": "c-Kit(V654A) assay (33P-ATP filter binding kinase assay)", "assay_type": "biochemical", "settings": "recombinant human c-Kit aa 544-end V654A, ATP 200 μM", "procedure": "c-Kit(V654A) (N-terminal GST-tagged, recombinant human c-Kit, amino acids 544-end containing the V654A mutation) is incubated with 8 mM MOPS pH 7.0, 0.2 mM EDTA, 250 μM GGMEDIYEFMGGKKK, 10 mM MgAcetate and [gamma-33P-ATP] (specific activity approx. 500 cpm/pmol, concentration 200 μM). The reaction is initiated by the addition of the MgATP mix. After incubation for 40 minutes at room temperature, the reaction is stopped by the addition of 3% phosphoric acid solution. 10 μL of the reaction is then spotted onto a P30 filtermat and washed three times for 5 minutes in 75 mM phosphoric acid and once in methanol prior to drying and scintillation counting."}}, "data": [{"smiles": "COc1ccn2c(-c3cc(NCc4ccc(-c5ccccc5)cc4)ncn3)cnc2c1", "note": "[A3, N-({[1,1′-biphenyl]-4-yl}methyl)-6-{7-methoxyimidazo[1,2-a]pyridin-3-yl}pyrimidin-4-amine]", "values": [{"measurement": "IC50", "setting": "[1]", "value": 2600, "unit": "nM"}, {"measurement": "IC50", "setting": "[2]", "value": 5.5, "unit": "nM"}]}, {"smiles": "Cn1cc(-c2ccc(CNc3cc(-c4cnc5cc(C(F)(F)F)ccn45)ncn3)cc2)cn1", "note": "[A10, N-{[4-(1-methyl-1H-pyrazol-4-yl)phenyl]methyl}-6-[7-(trifluoromethyl)imidazo[1,2-a]pyridin-3-yl]pyrimidin-4-amine]", "values": [{"measurement": "IC50", "setting": "[1]", "value": 1000, "unit": "nM"}, {"measurement": "IC50", "setting": "[2]", "value": 13, "unit": "nM"}]}, {"smiles": "COc1ccn2c(-c3cc(NCc4ccc(C(=O)N(C)C)cc4)ncn3)cnc2c1", "note": "[A13, 4-{[(6-{7-methoxyimidazo[1,2-a]pyridin-3-yl}pyrimidin-4-yl)amino]methyl}-N,N-dimethylbenzamide]", "values": [{"measurement": "IC50", "setting": "[1]", "value": 2300, "unit": "nM"}, {"measurement": "IC50", "setting": "[2]", "value": 100, "unit": "nM"}]}, {"smiles": "Cn1ccc(-c2ccc(CNc3cc(-c4cnc5ccccn45)ncn3)cc2)n1", "note": "[A14, (6-Imidazo[1,2-a]24yridine-3-yl-pyrimidin-4-yl)-[4-(1-methyl-1H-pyrazol-3-yl)-benzyl]-amine]", "values": [{"measurement": "IC50", "setting": "[1]", "value": 200, "unit": "nM"}, {"measurement": "IC50", "setting": "[2]", "value": 5.5, "unit": "nM"}]}, {"smiles": "COc1ccn2c(-c3cc(NCc4ccc(-c5cn(C)cn5)cc4)ncn3)cnc2c1", "note": "[A20, [6-(7-methoxy-imidazo[1,2-a]pyridin-3-yl)-pyrimidin-4-yl]-[4-(1-methyl-1H-imidazol-4-yl)-benzyl]-amine]", "values": [{"measurement": "IC50", "setting": "[1]", "value": 650, "unit": "nM"}, {"measurement": "IC50", "setting": "[2]", "value": 55, "unit": "nM"}]}, {"smiles": "COc1ccn2c(-c3cc(NCc4ccc(-c5cnn(CCN6CCOCC6)c5)cc4)ncn3)cnc2c1", "note": "[A22, [6-(7-methoxy-imidazo[1,2-a]pyridin-3-yl)-pyrimidin-4-yl]-{4-[1-(2-morpholin-4-yl-ethyl)-1H-pyrazol-4-yl]-benzyl}-amine]", "values": [{"measurement": "IC50", "setting": "[2]", "value": 110, "unit": "nM"}]}, {"smiles": "CCn1cc(-c2ccc(CNc3cc(-c4cnc5cc(OC)ccn45)ncn3)cc2)cn1", "note": "[A23, [4-(1-ethyl-1H-pyrazol-4-yl)-benzyl]-[6-(7-methoxy-imidazo[1,2-a]pyridin-3-yl)-pyrimidin-4-yl]-amine]", "values": [{"measurement": "IC50", "setting": "[1]", "value": 66, "unit": "nM"}, {"measurement": "IC50", "setting": "[2]", "value": 6.2, "unit": "nM"}]}, {"smiles": "COc1ccn2c(-c3cc(NCc4ccc(-c5cnn(CCN6CCCC6)c5)cc4)ncn3)cnc2c1", "note": "[A24, [6-(7-methoxy-imidazo[1,2-a]pyridin-3-yl)-pyrimidin-4-yl]-{4-[1-(2-pyrrolidin-1-yl-ethyl)-1H-pyrazol-4-yl]-benzyl}-amine]", "values": [{"measurement": "IC50", "setting": "[2]", "value": 160, "unit": "nM"}]}, {"smiles": "COc1ccn2c(-c3cc(NCc4ccc(-c5cn(C)nc5C)cc4)ncn3)cnc2c1", "note": "[A25, [4-(1,3-dimethyl-1H-pyrazol-4-yl)-benzyl]-[6-(7-methoxy-imidazo[1,2-a]pyridin-3-yl)-pyrimidin-4-yl]-amine]", "values": [{"measurement": "IC50", "setting": "[1]", "value": 210, "unit": "nM"}, {"measurement": "IC50", "setting": "[2]", "value": 26, "unit": "nM"}]}, {"smiles": "COc1ccn2c(-c3cc(NCc4ccc(-n5cnc6ccccc65)cc4)ncn3)cnc2c1", "note": "[A27, N-{[4-(1H-1,3-benzodiazol-1-yl)phenyl]methyl}-6-{7-methoxyimidazo[1,2-a]pyridin-3-yl}pyrimidin-4-amine]", "values": [{"measurement": "IC50", "setting": "[2]", "value": 63, "unit": "nM"}]}, {"smiles": "COc1ccn2c(-c3cc(NCc4cccc(-c5cnn(C)c5)c4)ncn3)cnc2c1", "note": "[A28, [6-(7-methoxy-imidazo[1,2-a]pyridin-3-yl)-pyrimidin-4-yl]-[3-(1-methyl-1H-pyrazol-4-yl)-benzyl]-amine]", "values": [{"measurement": "IC50", "setting": "[1]", "value": 1400, "unit": "nM"}, {"measurement": "IC50", "setting": "[2]", "value": 35, "unit": "nM"}]}, {"smiles": "COc1ccn2c(-c3cc(NCc4ccc(-c5cnn(C)c5)c(F)c4)ncn3)cnc2c1", "note": "[A29, N-{[3-fluoro-4-(1-methyl-1H-pyrazol-4-yl)phenyl]methyl}-6-{7-methoxyimidazo[1,2-a]pyridin-3-yl}pyrimidin-4-amine]", "values": [{"measurement": "IC50", "setting": "[1]", "value": 120, "unit": "nM"}, {"measurement": "IC50", "setting": "[2]", "value": 15, "unit": "nM"}]}, {"smiles": "COc1ccn2c(-c3cc(NCc4ccc(-c5cnc(C)nc5N)cc4)ncn3)cnc2c1", "note": "[A43, 5-(4-{[(6-{7-methoxyimidazo[1,2-a]pyridin-3-yl}pyrimidin-4-yl)amino]methyl}phenyl)-2-methylpyrimidin-4-amine]", "values": [{"measurement": "IC50", "setting": "[2]", "value": 260, "unit": "nM"}]}, {"smiles": "COc1ccn2c(-c3cc(NCc4ccc(-c5cnn(C)n5)nc4)ncn3)cnc2c1", "note": "[A45, [6-(7-methoxy-imidazo[1,2-a]pyridin-3-yl)-pyrimidin-4-yl]-[6-(2-methyl-2H-[1,2,3]triazol-4-yl)-pyridin-3-ylmethyl]-amine]", "values": [{"measurement": "IC50", "setting": "[2]", "value": 130, "unit": "nM"}]}, {"smiles": "COCC(COC)Oc1ccn2c(-c3cc(NCc4ccc(-c5cnn(C)c5)cc4)ncn3)cnc2c1", "note": "[A54, {6-[7-(2-methoxy-1-methoxymethyl-ethoxy)-imidazo[1,2-a]pyridin-3-yl]-pyrimidin-4-yl}-[4-(1-methyl-1H-pyrazol-4-yl)-benzyl]-amine]", "values": [{"measurement": "IC50", "setting": "[2]", "value": 120, "unit": "nM"}]}, {"smiles": "Cn1cc(-c2ccc(CNc3cc(-c4cnc5cc(OCc6nccn6C)ccn45)ncn3)cc2)nn1", "note": "[A110, {6-[7-(1-methyl-1H-imidazol-2-ylmethoxy)-imidazo[1,2-a]pyridin-3-yl]-pyrimidin-4-yl}-[4-(1-methyl-1H-[1,2,3]triazol-4-yl)-benzyl]-amine]", "values": [{"measurement": "IC50", "setting": "[2]", "value": 110, "unit": "nM"}]}, {"smiles": "COc1ccn2c(-c3cc(NCc4ccc(-c5cnn(CC6CNC6)c5)cc4)ncn3)cnc2c1", "note": "[A159, N-[(4-{1-[(azetidin-3-yl)methyl]-1H-pyrazol-4-yl}phenyl)methyl]-6-{7-methoxyimidazo[1,2-a]pyridin-3-yl}pyrimidin-4-amine]", "values": [{"measurement": "IC50", "setting": "[2]", "value": 88, "unit": "nM"}]}, {"smiles": "COc1ccn2c(-c3cc(OC(C)c4ccc(-c5cnn(C)c5)cc4)ncn3)cnc2c1", "note": "(centres unmarked) [A171, 7-methoxy-3-(6-{1-[4-(1-methyl-1H-pyrazol-4-yl)-phenyl]-ethoxy}-pyrimidin-4-yl)-imidazo[1,2-a]pyridine]", "values": [{"measurement": "IC50", "setting": "[2]", "value": 58, "unit": "nM"}]}, {"smiles": "COc1ccn2c(-c3cc(NCc4ccc(-c5cnc(CO)n5C)cc4)ncn3)cnc2c1", "note": "[A174, [5-(4-{[6-(7-Methoxy-imidazo[1,2-a]pyridin-3-yl)-pyrimidin-4-ylamino]-methyl}-phenyl)-1-methyl-1H-imidazol-2-yl]-methanol]", "values": [{"measurement": "IC50", "setting": "[2]", "value": 260, "unit": "nM"}]}, {"smiles": "Cn1cc(-c2ccc(CNc3cc(-c4cnc5cc(OCCN6CCC67COC7)ccn45)ncn3)cc2)cn1", "note": "[A207, [4-(1-methyl-1H-pyrazol-4-yl)-benzyl]-(6-{7-[2-(6-oxa-1-aza-spiro[3.3]hept-1-yl)-ethoxy]-imidazo[1,2-a]pyridin-3-yl}-pyrimidin-4-yl)-amine]", "values": [{"measurement": "IC50", "setting": "[2]", "value": 8.7, "unit": "nM"}]}, {"smiles": "Cn1cc(-c2ccc(CNc3cc(-c4cnc5cc(OCCCN6CC(F)C6)ccn45)ncn3)cc2)cn1", "note": "[A240, (6-{7-[3-(3-fluoro-azetidin-1-yl)-propoxy]-imidazo[1,2-a]pyridin-3-yl}-pyrimidin-4-yl)-[4-(1-methyl-1H-pyrazol-4-yl)-benzyl]-amine]", "values": [{"measurement": "IC50", "setting": "[2]", "value": 7.3, "unit": "nM"}]}, {"smiles": "Cn1cc(-c2ccc(CNc3cc(-c4cnc5cc(OCCCN6CC[S+]([O-])CC6)ccn45)ncn3)cc2)cn1", "note": "[A241, [4-(1-methyl-1H-pyrazol-4-yl)-benzyl]-(6-{7-[3-(1-oxo-1|4-thiomorpholin-4-yl)-propoxy]-imidazo[1,2-a]pyridin-3-yl}-pyrimidin-4-yl)-amine]", "values": [{"measurement": "IC50", "setting": "[2]", "value": 6.5, "unit": "nM"}]}, {"smiles": "Cn1ncc(-c2ccc(CNc3cc(-c4cnc5cc(N6CCN(C7COC7)CC6)ccn45)ncn3)cc2)n1", "note": "[A244, [4-(2-methyl-2H-[1,2,3]triazol-4-yl)-benzyl]-{6-[7-(4-oxetan-3-yl-piperazin-1-yl)-imidazo[1,2-a]pyridin-3-yl]-pyrimidin-4-yl}-amine]", "values": [{"measurement": "IC50", "setting": "[2]", "value": 21, "unit": "nM"}]}, {"smiles": "Cn1ncc(-c2ccc(CNc3cc(-c4cnc5cc(OCCCN6CCN(C7CC7)CC6)ccn45)ncn3)cc2)n1", "note": "[A253, (6-{7-[3-(4-cyclopropyl-piperazin-1-yl)-propoxy]-imidazo[1,2-a]pyridin-3-yl}-pyrimidin-4-yl)-[4-(2-methyl-2H-[1,2,3]triazol-4-yl)-benzyl]-amine]", "values": [{"measurement": "IC50", "setting": "[2]", "value": 6.5, "unit": "nM"}]}, {"smiles": "Cn1cc(-c2ccc(CNc3cc(-c4cnc5cc(OCC6CN(CC(F)(F)F)C6)ccn45)ncn3)cc2)cn1", "note": "[A254, N-{[4-(1-methyl-1H-pyrazol-4-yl)phenyl]methyl}-6-(7-{[1-(2,2,2-trifluoroethyl)azetidin-3-yl]methoxy}imidazo[1,2-a]pyridin-3-yl)pyrimidin-4-amine]", "values": [{"measurement": "IC50", "setting": "[2]", "value": 24, "unit": "nM"}]}, {"smiles": "CN1CC(F)(COc2ccn3c(-c4cc(NCc5ccc(-c6cnn(C)c6)cc5)ncn4)cnc3c2)C1", "note": "[A256, 6-{7-[(3-fluoro-1-methylazetidin-3-yl)methoxy]imidazo[1,2-a]pyridin-3-yl}-N-{[4-(1-methyl-1H-pyrazol-4-yl)phenyl]methyl}pyrimidin-4-amine]", "values": [{"measurement": "IC50", "setting": "[2]", "value": 12, "unit": "nM"}]}]}
